PubChem BioAssay (NCI)
“And” between values parts separate entries of the source, which are not always exact repeats. Equal values may be shown once.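 48-hour exposure; five concentrations; linearly interpolated endpoints. GI50 marks 50% less growth. TGI is the concentration that stops growth completely.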

Tests used:
Assay in all cases: inhibition of tumour cell growth, NCI panel, 48 h
[1] = test system: HT29 colon
[2] = test system: LOX IMVI melanoma
[3] = test system: NCI/ADR-RES ovarian
[4] = test system: PC-3 prostate
[5] = test system: SF-295 CNS
[6] = test system: SF-539 CNS
[7] = test system: SK-OV-3 ovarian
[8] = test system: SNB-19 CNS
[9] = test system: HCC-2998 colon
[10] = test system: UACC-257 melanoma

| Compound | TGI [1] | TGI [2] | TGI [3] | TGI [4] [µM] | TGI [5] | TGI [6] | TGI [7] | TGI [8] | TGI [9] | TGI [10] | GI50 [9] | GI50 [1] | GI50 [2] | GI50 [3] | GI50 [5] | GI50 [6] | GI50 [7] | GI50 [8] | GI50 [10] | GI50 [4] [µM] |
| --- | --- | --- | --- | --- | --- | --- | --- | --- | --- | --- | --- | --- | --- | --- | --- | --- | --- | --- | --- | --- |
| Clc1ccccc1NN(Cc1ccccn1)c1ccccc1Cl | 29.4 µM | 32.8 µM | 47.7 µM | > 100 | 71.4 µM | 36.6 µM | 94.9 µM | 79.7 µM | – | – | – | – | – | – | – | – | – | – | – | – |
| O=C1[C@@H](c2ccc(Cl)cc2)[C@H]2CC=C[C@H]2N1O | > 100 µM | > 100 µM | – | – | > 100 µM | > 100 µM | > 100 µM | > 100 µM | > 100 µM | > 100 µM | – | – | – | – | – | – | – | – | – | – |
| CC12CC3(C)CC(C)(C1)CC(N=[N+]=[N-])(C2)C3 | > 100 µM | > 100 µM | – | – | > 100 µM | > 100 µM | > 100 µM | > 100 µM | > 100 µM | > 100 µM | – | – | – | – | – | – | – | – | – | – |
| CSc1ccc(/C=C2\CNC/C(=C\c3ccc(SC)cc3)C2=O)cc1 | > 117 µM and 150 µg/mL | > 371 µM and 150 µg/mL | 150 µg/mL | – | > 150 µM and 33.5 µg/mL | 32.7 µM and 43.8 µg/mL | > 170 µM and 148 µg/mL | > 127 µM and 89.4 µg/mL | > 371 µM and 150 µg/mL | > 371 µM and 150 µg/mL | > 371 µM and 150 µg/mL | 150 µg/mL | 7.76 µM and 150 µg/mL | 150 µg/mL | 9.25 µg/mL | 15.2 µg/mL | 77.8 µg/mL | 50.9 µM and 23.9 µg/mL | 150 µg/mL | – |
| CC(=O)N(CCN)CCN | – | > 10 µM | – | – | > 10 µM | – | > 100 µM | > 10 µM | > 10 µM | > 10 µM | – | – | – | – | – | – | – | – | – | – |
| O=c1nc(-c2ccccc2)c2c3c(cccn13)CCC2 | > 100 µM | > 100 µM | – | – | > 100 µM | > 100 µM | > 100 µM | > 100 µM | > 100 µM | > 100 µM | – | – | – | – | – | – | – | – | – | – |
| Cc1cc(C)c2c(c1)CN1CN2Cc2cc(C)cc(C)c21 | 29.9 µM | 30.7 µM | – | – | 37.4 µM | – | 86.5 µM | – | – | – | – | – | – | – | – | – | – | – | – | – |
| CON(C)C(=O)C(C)NC(=O)OCc1ccccc1 (stereo not given) | > 100 µM | – | > 100 µM | > 100 | > 100 µM | > 100 µM | > 100 µM | > 100 µM | > 100 µM | > 100 µM | – | – | – | – | – | – | – | – | – | – |
| COC(=O)C1=C(OC(=O)c2ccc(Cl)cc2)C(C(=O)OC)[C@@]2(O)[C@@H](C(=O)OC)C(c3ccccc3C(F)(F)F)C[C@@H]1[C@@H]2C(=O)OC (stereo not given in full) | > 100 µM | – | > 100 µM | > 100 | – | > 100 µM | 60 µM | > 100 µM | > 100 µM | 8.32 µM | 5.54 µM | 3.54 µM | – | 3.11 µM | – | 5.13 µM | 5.99 µM | 6.44 µM | 2.76 µM | 4.5 |
| O=[N+]([O-])c1ccc(N=Nc2c(O)[nH]c3ccc([N+](=O)[O-])cc23)cc1 | 51.8 µM | > 100 µM | – | – | 27.5 µM | 33.4 µM | 58.5 µM | 40.5 µM | – | 59.7 µM | – | – | – | – | – | – | – | – | – | – |
| O=C(O)c1cc[c]([Hg][S]c2ncnc3nc[nH]c23)cc1 | 21.7 µM | 17.1 µM | 30.6 µM | 23.5 | > 100 µM | 25.6 µM | 23.2 µM | > 100 µM | – | 22.9 µM | – | 7.27 µM | 0.684 µM | 3.75 µM | 11.7 µM | 7.39 µM | 10.8 µM | > 76.7 µM | 10.4 µM | 8.37 |
| CC1(C)C(=O)C(O)=CC2C1=CCC1C2(C)C(=O)CC2(C)C(C(C)(O)C(=O)CC(O)C(C)(C)O)C(O)CC12C (stereo not given) | > 64.5 µM | 6.95 µM | – | – | 13.1 µM | 5.98 µM | 28.9 µM | 12.7 µM | 14 µM | 30.2 µM | – | – | – | – | – | – | – | – | – | – |
| Cc1cc([N+](=O)[O-])c(C)c2c1[nH]c1ccc(/C(CCC3CCCC3)=N\N)cc12 | > 100 µM | 29.6 µM | – | – | 38.1 µM | 34.8 µM | – | 35.7 µM | 30.9 µM | 42.7 µM | – | – | – | – | – | – | – | – | – | – |
| Cc1cc(Cl)ccc1NC(=O)C(=O)Cc1nc2ccc(C(=O)c3ccccc3)cc2[nH]c1=O | > 100 µM | > 100 µM | – | – | > 100 µM | > 100 µM | > 100 µM | > 100 µM | > 100 µM | > 100 µM | – | – | – | – | – | – | – | – | – | – |
| CC[O-].CC[O-].O=C1C(=C([O-])c2ccccc2)C(=O)c2ccccc21.O=C1C(=C([O-])c2ccccc2)C(=O)c2ccccc21.[Ti+4] | > 100 µM | > 100 µM | – | – | > 100 µM | > 100 µM | – | 93 µM | > 100 µM | > 100 µM | > 100 µM | > 100 µM | > 100 µM | – | 98.4 µM | > 100 µM | – | 29 µM | > 100 µM | – |
| O=C(c1ccccc1)c1c(CC(O)c2cccnc2)n(C(=O)c2ccccc2)c2ccccc12 (stereo not given) | 35.6 µM | – | – | – | 35.6 µM | 30.6 µM | – | 63.1 µM | 35 µM | 42 µM | – | – | – | – | – | – | – | – | – | – |
| CC(C)c1cccc(C(C)C)c1NC(=O)C(=O)C(C(=O)c1ccccc1-c1ccccc1)C1OC(=O)c2ccccc21 (stereo not given) | 43.9 µM | 31.1 µM | – | – | 37.6 µM | 27.9 µM | – | 40.1 µM | 32.5 µM | 29.9 µM | – | – | – | – | – | – | – | – | – | – |
| N=C(N)SCc1cn2ccccc2n1 | > 100 µM | > 100 µM | – | – | > 100 µM | > 100 µM | – | > 100 µM | > 100 µM | > 100 µM | – | – | – | – | – | – | – | – | – | – |
| Cc1c(C)c2cc3c(=O)ccoc3c(C)c2oc1=O | – | > 100 µM | – | – | > 100 µM | > 100 µM | > 100 µM | > 100 µM | > 100 µM | > 100 µM | – | – | – | – | – | – | – | – | – | – |
| COc1ccc([C@H]2CC(=O)N3CCCC3N2)cc1 (stereo not given in full) | > 100 µM | – | – | – | > 100 µM | > 100 µM | > 100 µM | > 100 µM | > 100 µM | > 100 µM | – | – | – | – | – | – | – | – | – | – |
| Cc1cc(O)c2c(c1)C(O)(c1ccc3c(c1O)C(=O)c1c(O)cc(C)cc1C3(O)C1OC(CO)C(O)C(O)C1O)c1cccc(O)c1C2=O (stereo not given) | 38.4 µM | 28 µM | – | – | 24.9 µM | 26.5 µM | 31.4 µM | 30.2 µM | 29.5 µM | 28.7 µM | – | – | – | – | – | – | – | – | – | – |
| CCc1ccccc1NC(=O)C(=O)C(C(=O)c1ccc(OC)cc1)c1ccc(OC)cc1 (stereo not given) | > 100 µM | > 100 µM | – | – | > 100 µM | > 100 µM | > 100 µM | > 100 µM | > 100 µM | > 100 µM | – | – | – | – | – | – | – | – | – | – |
| O=C(CCc1nc(=S)[nH][nH]1)NC12CC3CC(CC(C3)C1)C2 | > 100 µM | > 100 µM | – | – | > 100 µM | > 100 µM | > 100 µM | > 100 µM | > 100 µM | > 100 µM | – | – | – | – | – | – | – | – | – | – |
